Laboratory results reported in US20240252517A1, “MINERALOCORTICOID RECEPTOR ANTAGONISTS FOR THE PREVENTION AND/OR TREATMENT OF A CORONAVIRUS INFECTION” (Imaginatives Group Limited, priority 2021, published 2024).

Key:
[1] = tested on: SARS-CoV-2
[2] = tested on: COVID-19; conditions: cited from earlier work
[3] = tested on: endothelial cells; conditions: MR activation; result in words; cited from earlier work

Compound: C[C@@H]1C[C@H]2[C@@H]3CCC4=CC(=O)C=C[C@]4(C)[C@@]3(F)[C@@H](O)C[C@]2(C)[C@@]1(O)C(=O)CO [HIDEX, dexamethasone]
- Resorption of pneumonia on day 5 (number of patients) ([1]; 120 h): 15
- Fasting glucose ([1]; after 5 d, mean ± SD, baseline HIDEX 5.9 ± 2.0, SPIDEX 6.89 ± 3.22): 11.69 ± 6.21 mmol/L
- Breath rate/min ([1]; after 5 d, mean ± SD, baseline HIDEX 24.8 ± 4.6, SPIDEX 24.2 ± 4.1): 18.4 ± 3.1 min⁻¹
- CRP ([1]; after 5 d, mean ± SD, baseline HIDEX 72.4 ± 61.7, SPIDEX 65.75 ± 50.9): 28.1 ± 22.9 mg/L
- HR/min ([1]; after 5 d, mean ± SD, baseline HIDEX 84.7 ± 10.8, SPIDEX 83.8 ± 11.8): 89.1 ± 10.6 min⁻¹
- BPdiast., mm Hg ([1]; after 5 d, mean ± SD, baseline HIDEX 86 ± 8.6, SPIDEX 85.25 ± 12.40): 89.0 ± 10.6 mm Hg
- Blood oxygen, % ([1]; after 5 d, mean ± SD, baseline HIDEX 91.8 ± 3.6, SPIDEX 91.7 ± 3.3): 94.1 ± 3.0%
- D-dimer ([1]; after 5 d, mean ± SD, baseline HIDEX 736.7 ± 680.6, SPIDEX 755.5 ± 606.1): 574.8 ± 306.4 ng/mL
- CRP, mg/l (range in brackets) ([1]; after 5 d, range, baseline HIDEX 6.4-204, SPIDEX 10.2-209): (2.8-83.5) mg/l
- D-dimer, ng/ml (range in brackets) ([1]; after 5 d, range, baseline HIDEX 85-2500, SPIDEX 145-2500): (38-2800) ng/ml
- Fasting blood glucose compared to baseline ([1]; after 5 d, result in words): significantly elevated
- Loss of smell/taste, % of patients ([1]; after 5 days treatment, baseline 85% (spironolactone/low dose dexamethasone), 82.5% (high dose dexamethasone)): 75%
- BPsyst., mm Hg ([1]; after 5 d of treatment, mean ± SD, baseline HIDEX 139.6 ± 15.5, SPIDEX 137.5 ± 22.5): 150.1 ± 20.1 mm Hg
- Deaths (number of patients) ([1]; of 40 patients per group): 1
- Deterioration of the Chest X-ray picture assessed on the 5th day (number of patients) ([1]; of 40 patients per group): 4

Compound: C[C@]12CCC(=O)C=C1C=C[C@@H]1[C@@H]2CC[C@@]2(C)[C@H]1CC[C@@]21CCC(=O)O1 [canrenone]
- Patients requiring ventilation ([2]; group B given canrenone, group A 49%): 20%
- Mortality ([2]; group B given canrenone, group A conventional treatment 36%): 13%
- D-Dimer levels ([2]; result in words, rose significantly in control group): fell

Compound: CC(=O)S[C@@H]1CC2=CC(=O)CC[C@]2(C)[C@H]2CC[C@@]3(C)[C@@H](CC[C@@]34CCC(=O)O4)[C@H]12 [spironolactone]
- Exocytosis of Weibel-Palade bodies / Von Willebrand Factor [3]: blocked
